Where a name gives a salt, the structure may show the parent alone.
Assay: Steroid concentration in the cytoplasmic membrane (erythrocyte membrane ghosts, HPLC-MS)
Assay type: physicochemical, rat
Description: All animal manipulations were conducted in accordance with the Animal Protection Code of the Czech Republic and corresponding directives of the European Community Council (2010/63/EC). Experiments were approved by the Animal Care and Use Committee of the Institute of Physiology of the Academy of Sciences of the Czech Republic. Blood was collected from one adult Wistar rat, heparinized, and spun down at 1,000 g for 10 min. Cells were washed once with PBS, briefly spun down and the pellet resuspended in a minimum amount of ECS. Cells were counted and 200 μl aliquots (~3*10^9 cells) were taken for the experiment. Cell membranes were prepared by 30 min erythrocyte lysis in distilled water followed by centrifugation at 25,000 g for 10 min and resuspension in 200 μl of ECS. Cell membranes were incubated for 2 min with PA-S solution in ECS at the final volume of 500 μl, followed by a spin down at 20,000 g for 2 min. Supernatants were taken for liquid chromatography-mass spectrometry analysis (HPLC-MS). Solution of PA-S without membranes served as a control. […]
PA-S concentration was assessed in ECS to which steroid was added from its 20 mM stock solution ([PA-S]ECS) and in the supernatant of a solution containing er ythroc yte membranes ([PA-S]EC S+M) (see Methods). The concentration of steroid in the membrane ([PA-S]M) was calculated from the difference of [PA-S] in the control solution ([PA-S] EC S) and that in the supernatant containin g m embranes ([PA-S]EC S+M) accordin g to [PA-S]M = ([PA-S]ECS - [PA-S]EC S+M) · Vsolu tion /Vmembrane (where V denotes volume). Data points were fitted to the linear equation of the following form y = 38.8 * x; The partition coeffici ent for P A-S was calculated […]
7.4) determined using the online program CHEMICALIZE (http://www.chemicalize.org/).
Data points represent the mean of two independent measurements. The values of the partition coefficient (log D) of PA-S in the erythrocyte cytoplasmic membrane was calculated assuming 136 μm2 as the mean surface area of a rat erythroc yte and 4 nm as the mean membrane thickness. […]

## CC(=O)[C@H]1CC[C@H]2[C@@H]3CC[C@@H]4C[C@H](OS(=O)(=O)O)CC[C@]4(C)[C@H]3CC[C@]12C [PA-S, 20-oxo-5β-pregnan-3α-yl sulfate]
Calculated for the PA-S IC50 value of 55.7 µM
  equilibrium surface density S: 4.32 10−9 M m −2
Product of [PA-S]membrane and koff
  flux Jout of steroid from the membrane into the aqueous phase: at least 4.3 μM s^−1 m^−2
Y = slope * x
  slope of linear fit of [PA-S]M versus aqueous concentration: 38.8

From paper PMC4471902, “Block of NMDA receptor channels by endogenous neurosteroids: implications for the agonist induced conformational states of the channel vestibule” (Scientific Reports, 2015)
